Laboratory results reported in PubChem BioAssay AID449762 (Southern Research Specialized Biocontainment Screening …, 2010).
Results filed as inconclusive are left out.

Test system: M. tuberculosis H37Rv growth inhibition, 7H9 media
Assay: M. tuberculosis growth inhibition, HTS (AID 449762);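 further: bacterial growth assessed after seven days of incubation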
Conditions: for IC90: measured here: IC90 growth inhibition

SMILES	IC50	IC90
O=C1N=C(N2CCC(Cc3ccccc3)CC2)S/C1=C/c1cn[nH]c1-c1ccccc1	27.5 µM	> 100 µM
COc1ccc(/C=N/Nc2cc(N3CCCC3)nc(N3CCCC3)n2)cc1	16.3 µM	25 µM
COC(=O)CCn1c(C)cc(C(=O)COc2ccccc2C(N)=O)c1C	10.2 µM	15.8 µM
CCOC(=O)N1CCN(c2nc(N(c3ccccc3)c3ccccc3)nc(-n3ccnc3)n2)CC1	92.7 µM	> 100 µM
Cc1nn(-c2ccccc2)c(Cl)c1/C=C/C(=O)c1ccccc1	49.1 µM	56.7 µM
C/C(=C\C(=O)c1ccccc1)Nc1ccc(Cl)c(Br)c1	–	> 100 µM
COC(=O)c1ccc(-n2cnc3ccccc32)nc1	13.9 µM	45.1 µM
Cc1ccc(-c2cc(-c3ccccc3C)[nH]n2)c(O)c1	22.2 µM	> 100 µM
CC(OC(=O)COc1ccc(Nc2ccccc2)cc1)C(=O)N(C)c1ccccc1 (centres undefined)	< 0.2 µM	4.17 µM
Cc1ccc(C)c(NC(=O)c2cc(-c3ccccc3)nn2-c2ccccc2)c1	34.9 µM	59.6 µM
CCc1ccc(N=Nc2ccc(O)c3[nH]cnc23)cc1	15.4 µM	> 100 µM
CC(C)(C)c1ccc(-c2nc3[nH]c(=O)cc(NC(=O)c4ccco4)n3n2)cc1	74.4 µM	> 100 µM
c1ccc(-n2cnc3cc(NCc4cccs4)ccc32)cc1	85.6 µM	97.2 µM
c1ccc2c(c1)ncn2CCCCOc1ccc2c(c1)CCC2	22.8 µM	25.7 µM
Cc1cccc(/C=C/C(=O)c2ccc([N+](=O)[O-])o2)c1	< 0.2 µM	< 0.2 µM
COc1ccc2cc1Oc1ccc(cc1)C[C@H]1c3c(cc(OC)c4c3Oc3c(ccc5c3[C@H](C2)N(C)CC5)O4)CCN1C	4.9 µM	6.44 µM
Cc1ccc(NC(=O)COc2ccccc2CNC(C)(C)CC(C)(C)C)cc1	22.6 µM	29.8 µM
Cc1cccc(OCc2n(CC(=O)OC3CC(C)CCC3C(C)C)c3ccccc3[n+]2C)c1 (centres undefined)	7.43 µM	9.6 µM

SMILES	IC50	IC90
CCCCn1cnc2c(c(-c3ccccc3)c(-c3ccccc3)n2Cc2ccco2)c1=N	75.3 µM	97.4 µM
COc1cccc(CC2(CO)CCCN(Cc3[nH]c4ccc(C)cc4c3C)C2)c1 (centres undefined)	44 µM	50.4 µM
CCCn1nnnc1NC(=O)c1ccc(C)cc1Cl	7.89 µM	19.4 µM
C=C(C)C1Cc2c(C)nn(-c3nc(C)cc(C)n3)c2C1 (centres undefined)	2.72 µM	6.74 µM
O=C(c1cc([N+](=O)[O-])cc([N+](=O)[O-])c1)N(Cc1nnc(-c2ccccc2Cl)o1)C1CC1	2.59 µM	8.42 µM
CCC(C)NC(=O)c1cn(CC)c2cc(N3CCN(C(=O)c4ccco4)CC3)c(F)cc2c1=O (centres undefined)	9.33 µM	30.9 µM
CCCCCCCCNC(C)C(O)c1ccc(SC(C)C)cc1 (centres undefined)	22.5 µM	31.8 µM
Cc1ccc(NC(=O)COC(=O)CCc2c[nH]c3ccccc23)cc1[N+](=O)[O-]	0.68 µM	4.74 µM
CCC1CSC(Nc2ccc(C(=O)/C=C/c3cccc(C)c3)cc2)=N1 (centres undefined)	18.9 µM	27.3 µM
COc1ccc(/C=C/CN2CCC(CO)(Cc3ccccc3Cl)CC2)cc1	23.1 µM	26.6 µM
CC(C)=N/N=C1/NC(=O)C(Cc2ccccc2)S1 (centres undefined)	23.4 µM	25.9 µM
CN(C)CCCN1c2ccccc2Sc2ccc(Cl)cc21	51.6 µM	59 µM
Cc1ccc2[nH]c(C)c(CCNC(=O)c3cc4cc([N+](=O)[O-])ccc4oc3=O)c2c1	8.49 µM	16.5 µM
CC(=O)c1c(C)n(C)c2ccc(OC(=O)c3ccc([N+](=O)[O-])cc3)cc12	11.2 µM	> 100 µM
Cn1c(=O)c2c3c(sc2n2c(SCC(N)=O)nnc12)CC(C(C)(C)C)CC3 (centres undefined)	19.4 µM	32.9 µM
Cc1cc2c(cc1C)CSC(c1c(O)ccc3ccccc13)SC2	45.3 µM	> 100 µM
Cc1ccc2nc(/C(C#N)=C/c3cn[nH]c3-c3ccc(F)cc3)[nH]c2c1	20.9 µM	> 100 µM
